# Experimental data from article PMC4880976, “Pharmacologic rationale for the NK1R antagonist, aprepitant as adjunctive therapy in HIV” (Journal of Translational Medicine, 2016).
# pIC50: −log10 of the molar value. Read-outs that look alike come from different tables or passages of the source.
# Experiments:
# SIVmac251 = experiment: SIV infectivity study, plasma viral load; format: in vivo, rhesus macaques (Macaca mulatta)
# Description: For infectivity studies, eight male rhesus macaques were used. Animals were infected intravenously with 50 ng p27 of SIV. Following infection four animals were treated with aprepitant once daily dosing of 125 mg aprepitant administered orally for a year and four infected animals were left untreated. Aprepitant (commercial capsule contents) was mixed and co-administered with various food preparations to ensure dosing compliance. Food preparations included peanut butter, marshmallow cream and honey, disguised in non-citrus fruit. While formal stability and delivery experiments were not conducted, pilot bioavailability studies confirmed the robustness of aprepitant exposures following food co-administration. The improved bioavailability with food-based dosing in conjunction with oral aprepitant is consistent with preclinical experiments which project simulated exposures based on the commercial nanosized aprepitant formulation. In this evaluation, in silico model predictions were similar to observed in vivo pharmacokinetic data in the fed state; other studies have shown the benefit of complexation strategies to enhance aprepitant solubility/dissolution [30, 31].
# Blood was collected for PK sampling on days 1, 7 and 14 and trough samples were collected prior to dosing on days 3, 5, 7, 11 and 13. […] Videotaped recordings were analyzed using Observer XT® (Noldus IT). […]
# [1] = 1 μM in DMEM 10 % FBS or MDM cultures, days 0-7
# Description: A validated, liquid chromatography-tandem mass spectrometry method was used for the quantification of aprepitant plasma concentration in HIV infected animals and tissue culture media. The method utilized a simple sample-preparation procedure of protein precipitation with methanol. Chromatographic separation was performed on a reversed phase C8 column (Hypersil Gold, 50 mm × 2.1 mm, 3 μm) using a mobile phase composed of acetonitrile and water in 0.5 % formic acid through gradient elution. Electro-spray ionization in positive mode was incorporated in the tandem mass spectrometric detection. The lower limit of quantitation of aprepitant in human plasma was 1 ng/mL.
# GAG expression in control (non-treated) cultures were designated as 100 %; *p < 0.0001 between all groups including control were obtained through one-way ANOVA with post-test analysis by Bonferroni’s Multiple Comparison Test indicating significant difference between all groups in pair wise comparison. b Aprepitant added to DMEM 10 % FBS media or MDM cultures at a concentration of 1 μM (0.53 μg/ml) on day 0 and measured on days 0, 1, 2, 3 and 7. Results are presented as mean ± SD for three independent experiments
# [2] = Protein binding by ultrafiltration in human and rhesus macaque plasma and FBS; format: in vitro ADME; settings: three experiments
# Description: These experiments were conducted to assess the linkage between in vitro and in vivo exposure targets in order to more accurately project clinical dose requirements for aprepitant. Protein binding was assessed via ultrafiltration and detection of aprepitant in various biofluids was conducted via LC–MS/MS.
# Ultrafiltration units (CorningR Spin-X UF; MWCO 10 K) and filtrate collection tubes were obtained from Corning (Tewksbury, MA). Control human plasma was obtained by centrifugation of blood obtained from CHOP blood bank. Stock solutions of aprepitant in methanol were added to human plasma (1 %, v/v) to provide plasma samples at a nominal concentration of 10 μg/mL. This was further diluted with human plasma to provide 5, 2 and 0.5 μg/mL solutions. Similarly, aprepitant at above four concentration were also prepared in 10 % FBS in DMEM or 10 % FBS in water. Samples were incubated at 37 °C for 30 min to ensure equilibrium was established. Following incubation, an aliquot of sample was removed for determination of the drug concentration post incubation. Triplicate 500 μL aliquots of the samples were added to the sample reservoir of the UF unit with filtrate collection tubes. All ultrafiltration units were centrifuged at 13,000 rpm (15,000×g) for 15 min at 4 °C. […] Internal standard solution (500 μL) was added to each sample analyzed by the validated LC–MS/MS method described above. […]
# HIV-1 Bal = experiment: HIV infection of monocyte-derived macrophages (MDM) ex vivo, HIV gag mRNA by real time RT-PCR; format: cell-based; settings: for IC50: Human immunodeficiency virus 1, BAL, Macrophage
# Description: Blood samples were collected from the antecubital vein and monocytes were isolated as described below.
# For HIV infectivity experiments PBMC were isolated from freshly collected blood samples using Ficoll-Paque (GE Healthcare, Uppsala, Sweden) gradient. Monocytes were purified by adhesion as described [26, 27] and cultured in 48-well plates at a density of 0.25 × 10^6/0.5 ml/well in DMEM supplemented with 10 % FBS for 7 days before HIV-1 infection. Macrophages from each subject were exposed to four experimental conditions (none, 1, 5 and 10 µM of aprepitant). 7-day-cultured MDM were incubated with aprepitant for 2 h before infection with HIV-1 Bal (NIH AIDS Reagent Program), 5 ng/well based on p24 antigen assay, corresponding to a MOI of 0.02 determined using MAGI cells expressing CD4 and CCR5 (NIH AIDS Reagent Program). Cells were incubated with virus overnight, and then extensively washed to remove unbound virus. The culture medium and the aprepitant were replaced twice weekly. At day 7 post HIV infection, cellular RNA was extracted from the MDM for assessment of HIV gag mRNA expression using real time RT-PCR assays.
# Total RNA was extracted from MDM cells using RNeasy kit (Qiagen), and the potential DNA contamination was eliminated by on-column DNase digestion as instructed by the manufacturer (Qiagen). Total RNA (1 µg) was reverse transcribed using AffinityScript QPCR cDNA Synthesis kit ([sequence], Cedar Creek, TX) with random primer as instructed by the manufacture. 1 µl of the resulting cDNA was used as a template for real-time PCR amplification. […] Corresponding fragments of assayed genes cloned in pGEM-T vector (Promega) were used to generate standard curves.
# Following differentiation for 7 days MDM were infected with HIV Bal. Macrophages from each subject were exposed to all four experimental conditions as indicated (1, 5 and 10 μM concentrations of aprepitant). Control, HIV infected MDM were treated with aprepitant vehicle, 0.001 % DMSO. RNA was collected 7 days after infection and assayed for expression of HIV GAG by real time RT PCR using the GAPDH housekeeping gene for normalization. GAG expression in control (non-treated) cultures were designated as 100 %; *p < 0.0001 between all groups including control were obtained through one-way ANOVA with post-test analysis by Bonferroni’s Multiple Comparison Test indicating significant difference between all groups in pair wise comparison. b Aprepitant added to DMEM 10 % FBS media or MDM cultures at a concentration of 1 μM (0.53 μg/ml) on day 0 and measured on days 0, 1, 2, 3 and 7. Results are presented as mean ± SD for three independent experiments
smiles,measurement,setting,value
C[C@@H](O[C@H]1OCCN(Cc2n[nH]c(=O)[nH]2)[C@H]1c1ccc(F)cc1)c1cc(C(F)(F)F)cc(C(F)(F)F)c1 [aprepitant],reduction of viral load,"SIVmac251; 125 mg once daily oral for 12 months, SIV-infected rhesus, weeks 12-52",approximately tenfold
same,reduction in plasma levels of viral RNA versus non-treated controls,"SIVmac251; 125 mg/day oral, 3–12 month observation period",1 log
same,degradation in culture media,[1],little or no degradation
same,binding to human and rhesus macaque plasma and FBS,[2],99.79–99.95%
same,IC50,HIV-1 Bal; read-out: free drug IC50 concentration,~0.00265 µg/mL
same,IC50,HIV-1 Bal; read-out: total IC50 concentration,2.65 µg/mL
same,pIC50,"HIV-1 Bal; Human immunodeficiency virus 1, Macrophage, 168 h, human MDM, HIV-1 Bal, gag mRNA day 7, total concentration in DMEM 10 % FBS, read-out: IC50 (ED50 in abstract) for inhibition of HIV infection in MDM",~5.30
same,IC90,"HIV-1 Bal; Human immunodeficiency virus 1, Macrophage, human MDM, HIV-1 Bal, total concentration, read-out: IC90 for inhibition of HIV infection in MDM",~10 µM
